Consider 1 molecule from patent US20080260850A1, “Delivery System For Bioactive Agents on the Basis of a Polymeric Drug Carrier Comprising an Amphiphilic Block Polymer and a Polylacticacid Derivative” (SAMYANG CORPORATION, priority 2004, published 2008).

The structures appear in SMILES notation.

Data set [1] relates to MES-SA (doxorubicin-sensitive cell line). Put plainly: Intracellular uptake, flow cytometry (FACS). It counts as cell-based, human. The following applies: 1.0 μg/ml. How it is done: (§1) The flow cytometry study was performed with the FACStarPlus (Becton Dickinson) according to the method of Walker et al. (Experimental Cell Research 207: 142 (1993)). Briefly, cells (1.0×10^6) were incubated in McCoy's 5A medium (Invitrogen Corp.) supplemented with 10% fetal bovine serum and 1% penicillin streptomycin. After a 24-hour incubation period, the cells were treated with the drug composition at a dose of 1.0 μg/ml.

Data set [2] concerns MES-SA/Dx-5 (doxorubicin-resistant cell line). Put plainly: Intracellular uptake, flow cytometry (FACS). The data set is classed as cell-based, human. The settings on record: MES-SA/Dx-5, 1.0 μg/ml. How it is done:
as §1

Data set [3] concerns MES-SA (doxorubicin-sensitive cell line). Put plainly: In vitro cytotoxicity, MTT assay. The data set is classed as cell-based. How it is done:
(§2) MTT assay is well established method for cytotoxicity test. When the cells are treated with MTT (methylthiazoletetrazolium), the MTT-formazan is produced from reduction of MTT-tetrazolium by enzymes present in living cells only (dead cells cannot reduce the MTT-tetrazolium to MTT-formazan). The fluorescence of the MTT-formazan is detected by a fluorescence reader and the optical density correlates with the number of cells.
(§3) The cytotoxic activity of each composition was evaluated in both human tumor cell lines at five ten-fold dilutions ranging from 0.01 to 100 μg/ml. […] The MTT-formazan produced from reduction of MTT-tetrazolium by enzymes present in the living cells was detected by a fluorescence reader. The optical density correlates with the number of cells. […] The MTT assay was performed essentially according to the method of Carmichael et al. (Cancer Research 47: 936 (1987)). Briefly, cells were harvested from an exponential phase culture growing in McCoy's 5A medium (Invitrogen Corp.) supplemented with 10% fetal bovine serum and 1% penicillin streptomycin, counted and plated in 96 well flat-bottomed microtiter plates (100 cell suspension, 5×10^4 cells/ml for each cell line). After a 24 h recovery to allow the cells to resume exponential growth, a culture medium (24 control wells per plate) or culture medium containing drug was added to the wells. Each drug concentration was plated in triplicate. […] Fluorescence was measured using an automatic microplate reader (SpectraMax 190, Molecular Devices) at a wavelength of 549 nm, and the number of viable cells was calculated from the optical density.

For data set [4], the system named is MES-SA/Dx-5 (doxorubicin-resistant cell line). In words: In vitro cytotoxicity, MTT assay. It counts as cell-based. The method, then:
as §2, §3

The conditions of data set [5]: rat, in vivo, iv, 5 mg/kg. The method, then: The rats (5 rats for each formulation) were injected intravenously through the tail vein at a dose of 5 mg/kg. The blood samples were collected from the tail vein at 1, 5, 15, 30 minutes and 1, 2, 4, 8, and 24 hours after the drug injection. The blood samples were immediately centrifuged, and the plasma was separated. The plasma samples were stored at −50° C. until analysis. Doxorubicin was analyzed by HPLC assay described in example 1.

`COc1cccc2c1C(=O)c1c(O)c3c(c(O)c1C2=O)C[C@@](O)(C(=O)CO)C[C@@H]3O[C@H]1C[C@H](N)[C@H](O)[C@H](C)O1.Cl` [Free-Dox, doxorubicin hydrochloride]: the “Change of (Δ) Fluorescence Intensity” value in data set [1] (time 0 hr) was determined as 0.0; in data set [1] (time 1 hr) it was 7.6; in data set [1] (time 4 hr) it was 20.6; in data set [1] (time 8 hr), 40.6; in data set [2] (time 0 hr), 0.0; in data set [2] (time 1 hr), 2.6. Also, the “Change of (Δ) Fluorescence Intensity” value in data set [2] (time 4 hr) is listed as 7.1; in data set [2] (time 8 hr), 9.2. In addition, the “Number of cells(%) which absorbed the drug” value in data set [1] (time 0 hr) is recorded as 1.0%; in data set [1] (time 1 hr), 4.0%; in data set [1] (time 4 hr) it was 11.3%; in data set [1] (time 8 hr) it was 35.1%; in data set [2] (time 0 hr), 1.0%; in data set [2] (time 1 hr), 1.8%. In addition, the “Number of cells(%) which absorbed the drug” value in data set [2] (time 4 hr) worked out at 3.2%; in data set [2] (time 8 hr), 5.3%. Besides, the “MTT Assay IC50” value in data set [3] (time 24 hr) is 0.30 µg/mL; in data set [3] (time 48 hr), 0.087 µg/mL; in data set [3] (time 72 hr) it was 0.031 µg/mL; in data set [4] (MES-SA/Dx-5, time 24 hr), 54.0 µg/mL; in data set [4] (MES-SA/Dx-5, time 48 hr), 0.92 µg/mL; in data set [4] (MES-SA/Dx-5, time 72 hr), 0.75 µg/mL. Moreover, in data set [5], the AUC was determined as 1300 ng·h/mL.
